In patent US20190008983A1, “EXTRACELLULAR DRUG CONJUGATES TARGETING CD20” (priority 2015, published 2019):
pEC50: −log10 of the molar value. Read-outs that look alike come from different tables or passages of the source.

How the values were obtained:
[1] = system: CD20 positive cell line SUDHL4; assay: Cell proliferation/cytotoxicity assay (CellTiter-Glo) on SUDHL4 cells; type: cell-based, Human; conditions: for pEC50: read-out: EC50 in picoM, SUDHL4; for % viab., SUDHL4: figure in brackets after EC50
Protocol: (§1) These cell lines are the Ramos (Human Burkitt's lymphoma) and SUDHL4 (Non-Hodgkin lymphoma) cell lines. […] Cell viability was then analyzed using the CellTiter-Glo luminescent cell viability assay and standard package insert protocol of the manufacturer (Promega, Madison, Wis.).

[2] = system: CD20 positive cell line Ramos; assay: Cell proliferation/cytotoxicity assay (CellTiter-Glo) on Ramos cells; type: cell-based, Human; conditions: for % viab., Ramos: figure in brackets after EC50; for % viab., Ramos / pEC50: 72 hours incubation; for pEC50: CellTiter-Glo, Tables 1-2, read-out: EC50 in picoM, Ramos
Protocol: as §1

[3] = 72 hours incubation, CellTiter-Glo, Tables 1-2

Q: How did the pEC50 ([1]; Homo sapiens, SU-DHL-4, 72 h) turn out when C[C@]12CC[C@H](O)C[C@H]1CC[C@@H]1[C@@H]2CC[C@]2(C)[C@@H](c3ccc(=O)oc3)CC[C@]12O [Bufalin, reference compound] was run?
A: 7.80

Q: C[C@]12CC[C@H](OC3OC[C@H](N)[C@@H](O)[C@@H]3O)C=C1CC[C@@H]1[C@@H]2CC[C@]2(C)[C@@H](c3ccc(=O)oc3)CC[C@]12O (stereo partly shown) [CEN09-106] was tested. Which “% viab., SUDHL4” value ([1]; 72 hours incubation) did it give?
A: 0%

Q: And the “% viab., Ramos” value [2]?
A: 0%

Q: And the “activity on Ramos cells in FIG. 8 study” value ([2]; in the absence of complement, FIG. 8)?
A: significant but much less potent activity

Q: With CC12CCC(OC(=O)N3CCNCC3)CC1CCC1C2CCC2(C)C(c3ccc(=O)oc3)CCC12O (stereo not shown) [CEN-371] as the compound, how does the pEC50 [1, 3] read?
A: 7.96

Q: And the “% viab., SUDHL4” value ([1]; 72 hours incubation)?
A: 0%

Q: What about the pEC50 [2] of the same compound?
A: 8.11

Q: And the “% viab., Ramos” value [2]?
A: 0%

Q: How did the pEC50 [1, 3] turn out when CN(CCCN)CCCNC(=O)O[C@H]1CC[C@@]2(C)[C@H](CC[C@@H]3[C@@H]2CC[C@]2(C)[C@H](c4ccc(=O)oc4)CC[C@]32O)C1 [CEN-372] was run?
A: 8.36

Q: What about the pEC50 [2] of the same compound?
A: 8.44

Q: What does the source list for C[C@]12CC[C@H](OC(=O)NCCCNCCCN)C[C@H]1CC[C@@H]1[C@@H]2CC[C@]2(C)[C@H](c3ccc(=O)oc3)CC[C@]12O [CEN-373]?
A: pEC50 [1, 3]: 8.23; pEC50 [2]: 8.40

Q: Which results are given for C[C@]1(OC(=O)NCCCN2CCN(CCCN)CC2)CC[C@@]2(C)[C@H](CC[C@@H]3[C@@H]2CC[C@]2(C)[C@@](C)(C4=CC(=O)OC4)CC[C@]32O)C1 [CEN-381]?
A: pEC50 [1, 3]: < 7.30; pEC50 [2]: < 7.30

Q: C[C@]12CC[C@H](O)C[C@H]1CC[C@@H]1[C@@H]2CC[C@]2(C)[C@@H](C3=CC(=O)OC3)CC[C@]12O [Digitoxigenin, reference compound] was tested. Which pEC50 ([1]; Homo sapiens, SU-DHL-4, 72 h) did it give?
A: < 7.30

Q: C[C@]12CC[C@H](O)C=C1CC[C@@H]1[C@@H]2CC[C@]2(C)[C@@H](c3ccc(=O)oc3)CC[C@]12O [Scillarenin, reference compound] was tested. Which pEC50 ([1]; Homo sapiens, SU-DHL-4, 72 hours incubation, CellTiter-Glo, Tables 1-2) did it give?
A: 7.74
